# Like-named read-outs stand apart in the source and are kept apart here.
# Experiments:
# [1] = tested on: extracellular M. tuberculosis; test: MIC and MBC against extracellular bacteria; type: cell-based, Mycobacterium tuberculosis
# [2] = tested on: M. intracellulare; test: Mice infected with M. intracellulare, CFUs in organs; type: in vivo; conditions: after four and eight weeks of treatment
# [3] = in vivo; set-up: species or system rats; conditions: rat
# Protocol: In chronic studies with dogs and rats, the no-observed-adverse-effect-level was 1000 mg/kg. […] Significant partitioning of drug-related radioactivity to the formed elements of the blood was observed. […] The urine contained a small amount (5.5%) of radioactivity.
# Pharmacokinetic parameters were determined following single and multiple doses in rats and dogs. The doses in rats and dogs were based upon those utilized in the single and multiple-dose toxicology studies. In addition, the absorption, distribution, metabolism, and elimination of rifalazil was studied in rats and dogs. These studies confirmed prior findings that there are species differences vis-a-vis sensitivity to and response to treatment with rifalazil.
# [4] = human, in vivo
# Protocol: The third trial (003) was a randomized, rising, double-blind, multiple-dose, placebo-controlled study where subjects were observed during the 14-consecutive days of drug administration in dosages 0, 5 and 25 mg/day and for an additional 14 days without medication. All subjects received the dose within 30 minutes after eating a standardized breakfast. Subjects were divided into two groups. In Group 1, eight subjects were randomized to a daily 25 mg dose of rifalazil and four subjects were randomized to placebo. Numerous adverse reactions began to appear with the 25 mg dose several days after dosing and it became apparent that 25 mg daily dose was not safe. Consequently, after review of the safety data, the study protocol was amended to proceed with a lower dose of 5 mg in group 2. Group 2 consisted of eight subjects randomized to a daily 5 mg dose of rifalazil and four subjects randomized to placebo.
# In the clinical trials 001 and 002 all patients were submitted to laboratory testing where the hematology, serum chemistry and urinanalysis were examined prior to dosing, during dosing and at least 14 days following the cessation of drug administration.
# Laboratory testing regimen for 003 and 004 trials was the same as for 001 and 002 trials.
# The onset and magnitude of decrease in hematologic parameters appeared to be related to this dose. In order to better visualize the drop and subsequent recovery in these parameters, the data were graphed to synchronize subjects to their last dose.
# [5] = tested on: M. tuberculosis; conditions: cited from earlier work
# [6] = tested on: M. tuberculosis in human macrophages; conditions: intracellular, cited from earlier work
# [7] = tested on: extracellular M. tuberculosis; conditions: cited from earlier work
# [8] = tested on: M. tuberculosis; conditions: cited from earlier work; remark: listed apart in the source
# [9] = Ref. 7, 7H11 agar, 22 strains (rif^r and rif^s)
structure (smiles),measurement,setting,value
"CO[C@H]1/C=C/O[C@@]2(C)Oc3c(C)c(O)c4c(=O)c(c5oc6cc(N7CCN(CC(C)C)CC7)cc(O)c6nc-5c4c3C2=O)NC(=O)/C(C)=C\C=C\[C@H](C)[C@H](O)[C@@H](C)[C@@H](O)[C@@H](C)[C@H](OC(C)=O)[C@@H]1C [Rifalazil, 3′-hydroxy-5′-(4-isobutyl-1-piperazinyl)benzoxasinorifamycin]",MIC and MBC fold lower than rifampin,[1]; extracellular bacteria,at least 10 fold
same,MBCs relative to the MICs,[1]; typical,2-4 fold
same,number of CFUs in organs,[2],significantly reduced the number of colony forming units (CFUs) in organs
same,CL/F,[3]; female,3.62 mL/min/kg
same,CL/F,[3]; male,3.07 mL/min/kg
same,half-life,[3],12.5 h
same,radioactivity in the urine,[3],5.5%
same,radioactivity recovered in the feces,[3],84%
same,bioavailability,[3]; 3 mg/kg,30 to 40%
same,"WBC counts, level of continuous drop",[4],around 2.0 K/CU MM
same,nadir of mean WBC after the last dose,[4],1 to 2 days
same,time for hematologic parameters to return to normal after the last dose,[4],≤ 14 days
same,MIC90,"[5]; 22 strains, agar dilution",12500 ng/mL
same,MIC90,[5]; [9],12500 ng/mL
same,MIC Range,[5]; [9],≦0.0125 to 12.5^ μg/mL
same,MIC90,"[5]; Ref. 8, 7H11 agar, 16 strains (rif^s)",≦0.0125 μg/mL
same,MBC,[6]; strain Atencio,8 ng/mL
same,MIC,[6]; strain Atencio,4 ng/mL
same,MBC,[6]; strain Erdman,8 ng/mL
same,MIC,[6]; strain Erdman,8 ng/mL
same,MBC,[6]; strain H37Rv,16 ng/mL
same,MIC,[6]; strain H37Rv,4 ng/mL
same,MBC,[7]; strain Atencio,8 ng/mL
same,MIC,[7]; strain Atencio,1 ng/mL
same,MBC,[7]; strain Erdman,4 ng/mL
same,MIC,[7]; strain Erdman,2 ng/mL
same,MBC,[7]; strain H37Rv,31 ng/mL
same,MIC,[7]; strain H37Rv,8 ng/mL
same,lesions in the lung,[8]; 10 mg/kg six times a week,no lesions observed in the lung
same,reduction of log CFU in lungs,[8]; 10 mg/kg six times a week,about 80%
same,reduction of the bacteria,[8]; Twice-a-week or once-a-week administration,about 35%
same,reduction in CFU,[8]; once-a-week administration of these very high dosages,about 42%
